Laboratory results as given in ChEMBL document CHEMBL1201862, “PubChem BioAssay data set” (2004).
Active and inactive are the calls of the source.

Key:
[1] = target: Serine/threonine-protein kinase TAO1 (Homo sapiens, UniProt Q7L7X3); format: functional
[2] = target: Cyclin-dependent kinase 5 (Homo sapiens, UniProt Q00535); format: functional;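 also: CDK5 measured as one member of a kinase profiling panel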
[3] = target: Cyclin-dependent kinase 8 (Homo sapiens, UniProt P49336); test: Navigating the Kinome. Panel member name: CDK8; format: functional
[4] = target: Casein kinase I isoform alpha (Homo sapiens, UniProt P48729); format: functional
Insulin-degrading enzyme [5] = target: T1, Insulin-degrading enzyme (Homo sapiens, UniProt P14735); test: cellular IDE activation of Abeta substrate cleavage – fluorescence polarization, HEK cells, dose response (AID 588439); format: functional, cell-based
HEK293 [6] = test: optical interference in Abeta FP readout, dose response, artefact control for IDE activator project, biochemical, fluorescence polarization (AID 588442); format: functional, cell-based; details: Homo sapiens
Insulin-degrading enzyme [7] = target: T1, Insulin-degrading enzyme; test: recombinant IDE activation, cell-free – biochemical, fluorescence polarization, counter-screen for IDE activator project, dose response (AID 588681)
HEK293 [8] = test: membrane integrity loss in HEK cells – cell-based, fluorescence, cytotoxicity control for IDE activator project, dose response (AID 588440); format: functional; details: Homo sapiens;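 also: cytotoxicity by LDH release measuring loss of membrane integrity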
Orexin receptor type 2 [9] = target: T2, Orexin receptor type 2 (Homo sapiens, UniProt O43614); test: Counterscreen assay for antagonists of the orexin 1 receptor (OX1R; HCRTR1): Fluorescence-based cell-based dose response assay for antagonists of the orexin 2 receptor (OX2R; HCRTR2), run by assay provider.; format: functional
Orexin receptor type 2 [10] = target: T2, Orexin receptor type 2; test: Counterscreen assay for antagonists of the orexin 1 receptor (OX1R; HCRTR1): Homogeneous Time Resolved Fluorescence (HTRF)-based cell-based dose response assay for antagonists of the orexin 2 receptor (OX2R; HCRTR2), run by assay provider.; format: functional
CHO-K1 = test: (§1) Counterscreen for antagonists of the orexin 1 receptor (OX1R; HCRTR1): Homogeneous time resolved fluorescence (HTRF)-based cell-based dose response assay to identify antagonists of the parental CHO-K1 cell line. [Related pubchem assays (depositor defined):AID434989, AID435008, AID463079, AID485270, AID492963, AID492964, AID492965, AID493232, AID504699, AID504701]; format: functional; details: Cricetulus griseus
[11] = as §1, with “Fluorescence-based” for “Homogeneous time resolved fluorescence (HTRF)-based”, “cell-based high throughput” for “cell-based”, “CHO” for “CHO-K1”; format: functional
[12] = target: T3, Orexin/Hypocretin receptor type 1 (Homo sapiens, UniProt O43613); test: Homogeneous Time Resolved Fluorescence (HTRF)-based cell-based high throughput dose response assay for antagonists of the orexin 1 receptor (OX1R; HCRTR1). [Related pubchem assays (depositor defined):AID434989, AID435008, AID463079, AID485270, AID492963, AID492964, AID492965, AID493232, AID504717, AID504718]; format: functional
T3 sequence (O43613 whole entry): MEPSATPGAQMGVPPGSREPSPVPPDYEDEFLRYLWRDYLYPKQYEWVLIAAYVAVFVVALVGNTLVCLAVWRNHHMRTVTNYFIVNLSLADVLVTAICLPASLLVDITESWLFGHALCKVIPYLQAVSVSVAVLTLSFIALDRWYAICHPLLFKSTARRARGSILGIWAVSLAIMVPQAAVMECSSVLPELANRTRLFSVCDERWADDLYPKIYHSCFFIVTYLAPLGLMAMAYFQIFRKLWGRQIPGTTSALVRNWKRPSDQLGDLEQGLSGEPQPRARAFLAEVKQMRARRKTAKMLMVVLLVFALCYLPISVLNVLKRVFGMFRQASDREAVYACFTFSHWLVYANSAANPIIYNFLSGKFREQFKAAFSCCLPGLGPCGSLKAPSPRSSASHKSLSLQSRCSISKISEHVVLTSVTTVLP

[13] = target: T3, Orexin/Hypocretin receptor type 1; test: Fluorescence-based cell-based high throughput dose response assay for antagonists of the orexin 1 receptor (OX1R; HCRTR1). [Related pubchem assays (depositor defined):AID434989, AID435008, AID463079, AID485270, AID492963, AID492964, AID492965, AID493232, AID504717, AID504718]; format: functional
[14] = target: DNA dC->dU-editing enzyme APOBEC-3A (Homo sapiens, UniProt P31941); test: SAR analysis of small molecule inhibitors of APOBEC3A DNA Deaminase via a fluorescence-based single-stranded DNA deaminase assay.; format: functional; details: read-out: IC50_Mean
[15] = target: DNA dC->dU-editing enzyme APOBEC-3G (Homo sapiens, UniProt Q9HC16); test: inhibition of APOBEC3G ssDNA deamination – biochemical, fluorescence, single-stranded DNA substrate, SAR follow-up (AID 602136); format: functional; details: read-out: IC50_Mean
[16] = target: Cell division cycle 7-related protein kinase (Homo sapiens, UniProt O00311); format: functional;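 also: value obtained from a kinome-wide kinase panel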
[17] = target: Cyclin-dependent kinase 19 (Homo sapiens, UniProt Q9BWU1); test: Navigating the Kinome. Panel member name: CDC2L6; format: functional
CHO = CHO cell viability loss, potency – luminescence, cytotoxicity control for TLR9-MyD88 binding inhibitor project, dose response (AID 588339); format: functional, cell-based, hamster; details: Cricetulus griseus;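 also: CHO cells stably coexpressing TLR9 and MyD88 fusions from primary screen; compound exposure lasted 48 hours before viability readout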
Beta Lactamase = Beta Lactamase (Pseudomonas aeruginosa, UniProt Q932Y6); test: BLA reporter interference, concentration series – BLA reporter cells, FRET fluorescence, artefact control for TLR9-MyD88 binding inhibitor project, dose response (AID 588341); format: cell-based;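 also: cell based assay in CHO-K1 cells stably expressing beta-lactamase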
Caspase-7 = target: T4, Caspase-7 (Homo sapiens, UniProt P55210); test: potency of procaspase-7 enzyme activation – biochemical, absorbance, human, dual procaspase-3/-7 activator project, dose response (AID 504330)
T4 sequence (P55210 whole entry): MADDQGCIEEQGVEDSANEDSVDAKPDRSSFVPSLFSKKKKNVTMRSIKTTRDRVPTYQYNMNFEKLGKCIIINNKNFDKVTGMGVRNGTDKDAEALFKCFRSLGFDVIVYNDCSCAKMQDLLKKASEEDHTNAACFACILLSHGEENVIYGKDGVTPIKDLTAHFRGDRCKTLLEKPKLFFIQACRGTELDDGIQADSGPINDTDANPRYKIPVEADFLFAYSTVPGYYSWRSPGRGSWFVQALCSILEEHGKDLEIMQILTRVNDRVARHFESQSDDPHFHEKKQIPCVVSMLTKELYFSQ

Caspase-3 = target: T5, Caspase-3 (Homo sapiens, UniProt P42574); test: activators of human procaspase-3 D3A mutant – biochemical, absorbance, PC-3 D3A mutant, counter-screen for dual procaspase-3/7 activator project, dose response (AID 504328)
T5 sequence (P42574 whole entry): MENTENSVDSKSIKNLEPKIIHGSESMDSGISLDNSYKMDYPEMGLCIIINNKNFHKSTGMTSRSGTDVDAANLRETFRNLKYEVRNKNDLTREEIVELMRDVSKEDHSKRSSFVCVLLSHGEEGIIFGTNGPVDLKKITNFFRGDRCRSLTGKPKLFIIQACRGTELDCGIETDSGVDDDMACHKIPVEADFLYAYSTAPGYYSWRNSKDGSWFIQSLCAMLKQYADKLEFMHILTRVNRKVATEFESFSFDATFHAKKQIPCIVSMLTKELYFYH

[18] = target: Neuropeptides B/W receptor type 1 (Homo sapiens, UniProt P48145); test: human NPBW1 receptor blockade, IC50 – cell-based, fluorescence, dose response, set 6, late-stage follow-up (AID 588583); format: functional
[19] = target: Melanin-concentrating hormone receptor 1 (Homo sapiens, UniProt Q99705); test: Late-stage fluorescence-based counterscreen for antagonists of the G-protein coupled receptor 7 (GPR7): cell-based dose response assay to identify antagonists of the melanin-concentrating hormone receptor 1 (MCHR1) Set 6.; format: functional
[20] = THP-1 cell cytotoxicity, dose response, cytotoxicity control for non-replicating M. tuberculosis project (AID 489025); format: functional
[21] = reduction of Shn3 3'UTR-driven luciferase in osteoblasts – cell-based, Clone20 osteoblasts, firefly luciferase, cherry-picked, dose response (AID 624132); format: functional;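 also: firefly luciferase luminescence from reporter carrying the Shn3 3'UTR in osteoblasts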
[22] = non-specific 3'UTR reporter inhibition in Clone20-Shn3RL – cell-based, Renilla luciferase, cherry-picked, counter-screen for Shn3 inhibitor project, dose response (AID 624133); format: functional
[23] = A Cell Based Secondary Assay to Explore Cytotoxicity in HepG2 Cells of Compounds that Modulate Mycobacterium tuberculosis in Media Containing Glycerol versus Media without Glycerol (2).; format: functional
[24] = Vero cell cytotoxicity, cytotoxicity control for M. tuberculosis inhibitor project, purified and synthesized samples, set 3 (AID 504684); format: functional
[25] = Vero E6 cell cytotoxicity, dose response, cytotoxicity control for non-replicating M. tuberculosis project, secondary assay (AID 492998); format: functional, VeroE6; details: Vero C1008
[26] = A Cell Based Secondary Assay to Explore Cytotoxicity in THP-1 Cells of Compounds that Modulate Mycobacterium tuberculosis in Media Containing Glycerol versus Media without Glycerol (2).; format: functional
cells = format: functional
[27] = microbe, parasite or virus in culture; format: functional; details: Mycobacterium tuberculosis

T1 sequence (P14735 whole entry): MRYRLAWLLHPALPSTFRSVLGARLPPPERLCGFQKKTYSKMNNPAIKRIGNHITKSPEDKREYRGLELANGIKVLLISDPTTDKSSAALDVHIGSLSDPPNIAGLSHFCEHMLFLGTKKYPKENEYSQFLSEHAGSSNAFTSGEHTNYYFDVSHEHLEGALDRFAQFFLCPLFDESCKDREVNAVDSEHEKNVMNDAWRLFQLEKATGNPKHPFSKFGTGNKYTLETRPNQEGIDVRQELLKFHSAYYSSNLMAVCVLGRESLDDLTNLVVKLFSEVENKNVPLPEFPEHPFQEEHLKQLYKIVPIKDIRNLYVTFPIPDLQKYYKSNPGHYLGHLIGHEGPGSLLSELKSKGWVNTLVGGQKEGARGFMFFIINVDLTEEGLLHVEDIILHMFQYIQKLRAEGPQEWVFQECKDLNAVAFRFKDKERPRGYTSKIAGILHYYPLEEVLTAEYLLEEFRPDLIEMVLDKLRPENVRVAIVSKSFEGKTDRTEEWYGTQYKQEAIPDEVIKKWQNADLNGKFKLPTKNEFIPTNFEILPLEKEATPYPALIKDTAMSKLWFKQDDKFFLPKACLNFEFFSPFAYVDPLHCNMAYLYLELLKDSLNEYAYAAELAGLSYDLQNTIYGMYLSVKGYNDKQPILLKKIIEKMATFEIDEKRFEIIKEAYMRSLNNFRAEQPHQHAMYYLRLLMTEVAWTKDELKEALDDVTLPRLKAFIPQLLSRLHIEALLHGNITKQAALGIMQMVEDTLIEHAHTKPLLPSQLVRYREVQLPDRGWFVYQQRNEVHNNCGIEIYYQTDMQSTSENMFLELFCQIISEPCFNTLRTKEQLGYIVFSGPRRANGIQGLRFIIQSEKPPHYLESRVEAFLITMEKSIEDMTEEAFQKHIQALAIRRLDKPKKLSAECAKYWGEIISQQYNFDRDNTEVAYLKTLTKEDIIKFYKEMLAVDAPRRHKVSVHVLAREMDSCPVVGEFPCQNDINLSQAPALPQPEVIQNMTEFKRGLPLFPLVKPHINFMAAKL
T2 sequence (O43614 whole entry): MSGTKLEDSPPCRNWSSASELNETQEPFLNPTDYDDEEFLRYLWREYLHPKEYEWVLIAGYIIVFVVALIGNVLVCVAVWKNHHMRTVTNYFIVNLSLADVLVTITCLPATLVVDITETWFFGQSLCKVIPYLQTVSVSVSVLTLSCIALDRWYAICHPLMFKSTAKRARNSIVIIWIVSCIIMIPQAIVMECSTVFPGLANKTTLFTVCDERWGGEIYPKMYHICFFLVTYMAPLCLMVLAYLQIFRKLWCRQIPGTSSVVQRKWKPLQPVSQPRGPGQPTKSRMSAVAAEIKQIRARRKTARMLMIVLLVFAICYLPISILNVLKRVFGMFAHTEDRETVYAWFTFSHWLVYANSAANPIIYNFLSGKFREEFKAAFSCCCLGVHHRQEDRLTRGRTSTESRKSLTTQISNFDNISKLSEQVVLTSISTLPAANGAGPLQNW
Sequence of DNA dC->dU-editing enzyme APOBEC-3G (Q9HC16 whole entry): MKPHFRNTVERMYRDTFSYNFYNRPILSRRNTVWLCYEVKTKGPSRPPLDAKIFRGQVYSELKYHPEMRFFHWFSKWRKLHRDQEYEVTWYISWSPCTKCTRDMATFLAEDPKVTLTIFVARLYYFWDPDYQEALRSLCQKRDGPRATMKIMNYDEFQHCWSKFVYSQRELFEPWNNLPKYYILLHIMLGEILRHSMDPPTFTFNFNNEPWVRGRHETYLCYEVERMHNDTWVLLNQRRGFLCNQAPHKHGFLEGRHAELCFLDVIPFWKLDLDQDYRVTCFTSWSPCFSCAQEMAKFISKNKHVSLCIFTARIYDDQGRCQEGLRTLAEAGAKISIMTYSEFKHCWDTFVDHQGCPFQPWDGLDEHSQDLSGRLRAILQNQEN
Sequence of Cyclin-dependent kinase 5 (Q00535 whole entry): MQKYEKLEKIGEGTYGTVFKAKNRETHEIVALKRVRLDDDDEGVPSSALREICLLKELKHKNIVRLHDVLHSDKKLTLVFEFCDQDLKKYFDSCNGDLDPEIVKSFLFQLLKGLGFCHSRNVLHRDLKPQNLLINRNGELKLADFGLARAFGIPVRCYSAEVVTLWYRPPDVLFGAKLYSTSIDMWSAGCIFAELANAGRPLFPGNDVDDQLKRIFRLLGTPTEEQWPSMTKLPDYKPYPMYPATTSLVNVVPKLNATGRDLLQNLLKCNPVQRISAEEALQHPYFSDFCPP
Sequence of Neuropeptides B/W receptor type 1 (P48145 whole entry): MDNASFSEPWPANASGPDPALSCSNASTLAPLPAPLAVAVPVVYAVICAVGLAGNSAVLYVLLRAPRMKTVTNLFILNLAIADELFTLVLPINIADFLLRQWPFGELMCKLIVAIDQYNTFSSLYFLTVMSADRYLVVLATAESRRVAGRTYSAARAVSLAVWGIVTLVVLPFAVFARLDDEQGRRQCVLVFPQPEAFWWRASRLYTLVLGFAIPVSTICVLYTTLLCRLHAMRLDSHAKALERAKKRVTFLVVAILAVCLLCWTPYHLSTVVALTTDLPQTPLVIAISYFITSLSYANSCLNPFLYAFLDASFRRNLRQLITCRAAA
Sequence of Melanin-concentrating hormone receptor 1 (Q99705 whole entry): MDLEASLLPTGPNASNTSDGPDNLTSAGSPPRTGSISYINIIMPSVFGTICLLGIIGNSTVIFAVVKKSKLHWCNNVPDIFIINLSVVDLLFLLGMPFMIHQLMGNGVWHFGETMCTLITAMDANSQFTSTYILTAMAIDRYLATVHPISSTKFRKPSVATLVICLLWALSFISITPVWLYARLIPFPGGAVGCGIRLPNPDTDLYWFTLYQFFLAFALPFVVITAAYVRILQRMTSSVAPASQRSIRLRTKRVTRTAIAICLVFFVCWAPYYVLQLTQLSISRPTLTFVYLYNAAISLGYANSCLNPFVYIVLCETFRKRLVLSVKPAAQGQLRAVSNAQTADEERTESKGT
Sequence of Cell division cycle 7-related protein kinase (O00311 whole entry): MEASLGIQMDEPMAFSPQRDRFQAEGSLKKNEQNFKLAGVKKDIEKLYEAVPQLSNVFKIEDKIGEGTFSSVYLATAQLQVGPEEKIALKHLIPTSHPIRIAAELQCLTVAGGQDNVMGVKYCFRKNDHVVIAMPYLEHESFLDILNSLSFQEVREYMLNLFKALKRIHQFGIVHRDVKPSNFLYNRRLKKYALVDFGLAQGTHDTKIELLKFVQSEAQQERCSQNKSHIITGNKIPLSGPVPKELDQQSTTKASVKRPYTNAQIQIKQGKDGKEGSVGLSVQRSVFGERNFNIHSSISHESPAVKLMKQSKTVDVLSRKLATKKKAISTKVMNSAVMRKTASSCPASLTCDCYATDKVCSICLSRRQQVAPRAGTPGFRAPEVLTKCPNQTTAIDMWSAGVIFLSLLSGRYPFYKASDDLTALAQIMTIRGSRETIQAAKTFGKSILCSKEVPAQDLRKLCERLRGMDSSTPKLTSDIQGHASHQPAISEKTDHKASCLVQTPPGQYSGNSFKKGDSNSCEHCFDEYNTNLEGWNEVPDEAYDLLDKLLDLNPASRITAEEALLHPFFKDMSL
Sequence of Cyclin-dependent kinase 8 (P49336 whole entry, canonical isoform): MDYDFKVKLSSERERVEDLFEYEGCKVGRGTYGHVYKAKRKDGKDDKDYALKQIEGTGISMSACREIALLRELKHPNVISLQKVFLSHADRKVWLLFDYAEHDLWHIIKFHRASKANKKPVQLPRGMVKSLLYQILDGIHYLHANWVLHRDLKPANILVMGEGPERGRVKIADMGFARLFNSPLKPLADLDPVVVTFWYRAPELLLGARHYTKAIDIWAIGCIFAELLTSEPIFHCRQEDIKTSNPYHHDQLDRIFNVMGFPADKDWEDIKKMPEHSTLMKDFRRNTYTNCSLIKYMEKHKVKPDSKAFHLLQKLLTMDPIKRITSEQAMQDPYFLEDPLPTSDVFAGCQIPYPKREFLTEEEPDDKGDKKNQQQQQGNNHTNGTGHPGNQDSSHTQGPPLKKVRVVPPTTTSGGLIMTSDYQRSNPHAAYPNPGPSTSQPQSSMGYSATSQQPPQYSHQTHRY
Sequence of Beta Lactamase (Q932Y6 whole entry): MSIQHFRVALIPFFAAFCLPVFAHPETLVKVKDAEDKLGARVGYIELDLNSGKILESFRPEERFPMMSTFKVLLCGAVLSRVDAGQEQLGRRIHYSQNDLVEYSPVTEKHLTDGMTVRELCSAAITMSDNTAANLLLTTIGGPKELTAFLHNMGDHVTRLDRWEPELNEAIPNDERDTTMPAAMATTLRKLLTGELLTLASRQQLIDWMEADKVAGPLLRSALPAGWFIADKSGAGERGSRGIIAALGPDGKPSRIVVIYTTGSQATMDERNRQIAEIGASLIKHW
Sequence of Cyclin-dependent kinase 19 (Q9BWU1 whole entry, the tested form may be a part): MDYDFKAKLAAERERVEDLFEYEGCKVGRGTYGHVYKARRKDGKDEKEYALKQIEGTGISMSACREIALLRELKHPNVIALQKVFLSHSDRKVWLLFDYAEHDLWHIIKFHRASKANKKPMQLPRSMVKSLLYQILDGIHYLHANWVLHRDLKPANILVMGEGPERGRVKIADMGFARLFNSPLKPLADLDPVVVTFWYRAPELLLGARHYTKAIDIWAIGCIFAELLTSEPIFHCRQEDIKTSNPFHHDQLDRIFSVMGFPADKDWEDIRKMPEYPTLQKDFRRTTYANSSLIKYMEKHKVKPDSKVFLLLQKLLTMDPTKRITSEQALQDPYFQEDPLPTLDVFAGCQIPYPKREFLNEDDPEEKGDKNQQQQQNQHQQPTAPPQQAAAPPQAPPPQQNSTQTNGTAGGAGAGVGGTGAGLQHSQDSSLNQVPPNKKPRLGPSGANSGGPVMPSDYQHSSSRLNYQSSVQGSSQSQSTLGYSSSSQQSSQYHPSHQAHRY
Sequence of DNA dC->dU-editing enzyme APOBEC-3A (P31941 whole entry): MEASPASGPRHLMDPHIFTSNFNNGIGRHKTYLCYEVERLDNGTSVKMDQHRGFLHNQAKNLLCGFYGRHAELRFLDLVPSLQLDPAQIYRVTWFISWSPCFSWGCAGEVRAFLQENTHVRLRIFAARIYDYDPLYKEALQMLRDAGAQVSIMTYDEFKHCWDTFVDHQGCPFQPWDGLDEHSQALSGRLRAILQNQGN

## CC(C)(C)c1cc(NC(=O)C(=O)c2cccc3ccccc23)n(-c2ccc(OCCC(N)=O)cc2)n1
[1]
  Ki: > 6.31 µM (inactive)
[2]
  Ki: 1.58 µM (active)
[3]
  Ki: 2 µM (active)
[4]
  Ki: 3.98 µM (active)

## Cc1ccc(S(=O)(=O)/N=C/c2cc(Br)ccc2O)cc1
Insulin-degrading enzyme [5]
  EC50: > 54.7 µM (inactive)
HEK293 [6]
  EC50: > 54.7 µM (inactive)
Insulin-degrading enzyme [7]
  EC50: > 54.7 µM (inactive)
HEK293 [8]
  IC50: > 89.1 µM (inactive)

## CSc1cccc(NC(=O)C2CCCN2S(=O)(=O)c2ccc(Br)s2)c1 (stereo not drawn)
Orexin receptor type 2 [9]
  IC50: 0.4 µM (active)
Orexin receptor type 2 [10]
  IC50: 0.34 µM (active)
CHO-K1
  IC50: > 66.2 µM (inactive)
[11]
  IC50: 27.8 µM (inactive)
[12]
  IC50: 0.0933 µM (active)
[13]
  IC50: 0.8 µM (active)

## COc1cc2c(c3oc(=O)c4c(c13)CCC4)C=CC(C)(C)O2
[14]
  IC50: > 99 µM (inactive)
[15]
  IC50: > 99 µM (inactive)

## O=C(O)c1ccccc1Nc1ccnc(NCc2ccccc2)n1
[16]
  Ki: 0.0501 µM (active)
[17]
  Ki: > 100 µM (inactive)

## COc1ccccc1N1C(=O)C2C(C(=O)c3ccccc3)=NN(c3ccccc3)C2C1=O (stereo not drawn)
CHO
  IC50: > 49.8 µM (inactive)
Beta Lactamase
  IC50: 9.37 µM (active)
Caspase-7
  EC50: > 85.3 µM (inactive)
Caspase-3
  EC50: > 85.3 µM (inactive)

## CC(C)(C)OC(=O)C(C#N)c1c(Cl)cnn(Cc2cccc3ccccc23)c1=O (stereo not drawn)
[18]
  IC50: 0.682 µM (active)
[19]
  IC50: 0.682 µM (active)

## Cc1ccc2c(c1)/C(=C1\C(=O)Nc3ccccc31)C(=O)N2C
[20]
  CC50: 27 µM (active)
[21]
  AC50: 8.85 µM (active)
[22]
  AC50: 12.1 µM (active)
[23]
  CC50: 12.9 µM (active)
[24]
  CC50: 4.55 µM (active)
[25]
  CC50: 4.76 µM (active)
[26]
  CC50: 13.4 µM (active)
cells
  IC50: 1.89 µM (active)
[27]
  CC50: 16.3 µM (active)
